We go through eleven compounds from patent US11584755B2 (IDEAYA BIOSCIENCES, INC., priority 2017, dated 2023).

What all share (format): biochemical
For one assay, the target named is hEXO1, Isoform1 (Homo sapiens (Human), UniProt Q9UQ84). Nature of the assay: Enzymatic IC50 assay, FAM-labeled DNA oligomer substrate, fluorescence intensity (EXO1). The conditions noted are these: hEXO1 6 nM, substrate 30 nM, reaction time 60 minutes, 23° C. In outline:
(§1)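 FEN1, EXO1 or XPG was preincubated 15 min with compound, then the FAM-labelled DNA oligomer substrate was added in Tris-HCl pH 8.0 with 10 mM MgCl2 at 23° C. FEN1 was 70 pM with 100 nM substrate for 20 min, EXO1 6 nM with 30 nM for 60 min, and XPG 100 nM with 100 nM for 120 min. Reactions were EDTA-stopped and read by fluorescence intensity.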

For another assay, the target named is hFEN1 (Homo sapiens (Human), UniProt P39748). Kind of assay: Enzymatic IC50 assay, FAM-labeled DNA oligomer substrate, fluorescence intensity (FEN1). The following applies: hFEN1 70 pM, substrate 100 nM, reaction time 20 minutes, 23° C. In outline: as §1
Sequence of hFEN1 (P39748 whole entry): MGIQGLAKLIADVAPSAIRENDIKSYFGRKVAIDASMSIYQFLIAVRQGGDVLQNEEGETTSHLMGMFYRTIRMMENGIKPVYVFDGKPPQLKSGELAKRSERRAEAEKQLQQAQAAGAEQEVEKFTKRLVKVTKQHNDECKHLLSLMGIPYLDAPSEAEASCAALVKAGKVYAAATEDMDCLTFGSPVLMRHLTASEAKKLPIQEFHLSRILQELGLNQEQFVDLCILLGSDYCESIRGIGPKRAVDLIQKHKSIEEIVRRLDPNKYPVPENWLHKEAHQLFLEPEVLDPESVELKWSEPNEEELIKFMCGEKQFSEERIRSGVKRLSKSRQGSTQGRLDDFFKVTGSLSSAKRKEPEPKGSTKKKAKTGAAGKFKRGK
The next assay concerns the target hXPG (Homo sapiens (Human), UniProt P28715). Kind of assay: Enzymatic IC50 assay, FAM-labeled DNA oligomer substrate, fluorescence intensity (XPG). The conditions noted are these: hXPG 100 nM, substrate 100 nM, reaction time 120 minutes, 23° C. Put shortly: as §1

Sequence of hEXO1, Isoform1 (Q9UQ84 whole entry, canonical isoform): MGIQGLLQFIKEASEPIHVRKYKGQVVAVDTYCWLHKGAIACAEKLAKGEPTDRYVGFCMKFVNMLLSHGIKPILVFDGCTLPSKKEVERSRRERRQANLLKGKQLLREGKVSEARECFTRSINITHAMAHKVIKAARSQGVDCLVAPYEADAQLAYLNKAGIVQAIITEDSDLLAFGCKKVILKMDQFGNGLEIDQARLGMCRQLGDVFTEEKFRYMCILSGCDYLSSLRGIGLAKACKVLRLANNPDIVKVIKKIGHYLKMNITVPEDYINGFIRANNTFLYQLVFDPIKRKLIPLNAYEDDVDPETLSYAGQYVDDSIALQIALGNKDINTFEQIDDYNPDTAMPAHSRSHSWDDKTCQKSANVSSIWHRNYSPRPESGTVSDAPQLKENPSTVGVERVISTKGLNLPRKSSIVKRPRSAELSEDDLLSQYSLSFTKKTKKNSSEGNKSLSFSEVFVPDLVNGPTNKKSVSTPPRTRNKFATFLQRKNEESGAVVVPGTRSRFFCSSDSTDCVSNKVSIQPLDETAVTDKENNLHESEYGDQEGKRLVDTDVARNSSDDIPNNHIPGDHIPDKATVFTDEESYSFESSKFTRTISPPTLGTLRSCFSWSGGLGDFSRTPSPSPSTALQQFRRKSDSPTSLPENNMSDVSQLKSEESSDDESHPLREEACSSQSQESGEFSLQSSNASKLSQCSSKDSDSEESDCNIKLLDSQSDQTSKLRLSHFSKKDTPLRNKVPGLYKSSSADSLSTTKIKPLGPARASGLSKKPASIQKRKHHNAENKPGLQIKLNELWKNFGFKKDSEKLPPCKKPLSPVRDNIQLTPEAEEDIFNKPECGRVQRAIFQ
Sequence of hXPG (P28715 whole entry): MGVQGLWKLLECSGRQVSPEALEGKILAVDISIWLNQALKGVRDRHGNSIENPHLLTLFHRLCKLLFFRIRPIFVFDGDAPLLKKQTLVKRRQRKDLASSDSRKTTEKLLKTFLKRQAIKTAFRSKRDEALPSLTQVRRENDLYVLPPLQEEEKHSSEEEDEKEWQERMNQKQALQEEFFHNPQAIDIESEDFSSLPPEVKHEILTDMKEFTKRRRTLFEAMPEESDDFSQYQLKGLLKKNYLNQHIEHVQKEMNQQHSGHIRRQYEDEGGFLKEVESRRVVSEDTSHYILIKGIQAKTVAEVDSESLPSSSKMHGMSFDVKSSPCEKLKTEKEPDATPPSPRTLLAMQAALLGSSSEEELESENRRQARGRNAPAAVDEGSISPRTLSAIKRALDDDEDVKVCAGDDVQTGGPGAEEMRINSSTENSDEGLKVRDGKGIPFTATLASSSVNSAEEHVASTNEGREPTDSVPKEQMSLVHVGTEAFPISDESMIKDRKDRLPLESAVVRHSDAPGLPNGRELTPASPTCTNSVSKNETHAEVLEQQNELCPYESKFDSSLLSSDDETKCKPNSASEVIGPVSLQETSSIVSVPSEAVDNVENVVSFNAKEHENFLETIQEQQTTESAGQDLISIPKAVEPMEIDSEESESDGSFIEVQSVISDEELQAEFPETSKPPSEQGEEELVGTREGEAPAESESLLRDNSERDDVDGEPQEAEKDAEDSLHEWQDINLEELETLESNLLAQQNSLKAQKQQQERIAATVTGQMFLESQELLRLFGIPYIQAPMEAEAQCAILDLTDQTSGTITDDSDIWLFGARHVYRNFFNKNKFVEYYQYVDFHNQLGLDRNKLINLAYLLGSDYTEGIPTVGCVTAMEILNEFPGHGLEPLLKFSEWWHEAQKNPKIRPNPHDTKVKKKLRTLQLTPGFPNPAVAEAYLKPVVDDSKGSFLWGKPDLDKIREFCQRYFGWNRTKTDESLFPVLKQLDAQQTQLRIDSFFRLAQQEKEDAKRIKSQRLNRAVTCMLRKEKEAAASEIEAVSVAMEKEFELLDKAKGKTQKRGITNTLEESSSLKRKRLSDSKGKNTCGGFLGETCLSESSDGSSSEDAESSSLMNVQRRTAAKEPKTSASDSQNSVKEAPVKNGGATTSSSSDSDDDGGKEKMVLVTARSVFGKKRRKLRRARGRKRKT

Broadly, the IC50 is the concentration that gives 50% inhibition. For the compound `O=C(O)c1c(O)c(=O)n(Cc2cnn(Cc3cn4ncccc4n3)c2)c2ccsc12` [Example 138], the IC50 was 2250 to 10000 nM against hEXO1, Isoform1; less than 200 nM on hFEN1; 2250 to 10000 nM at hXPG.

Consider `O=C(O)c1c(O)c(=O)n(Cc2cnn(Cc3cccc4nonc34)c2)c2ccsc12` [Example 140, 4-{[1-(benzo[c][1,2,5]oxadiazol-4-ylmethyl)-1H-pyrazol-4-yl]methyl}-6-hydroxy-5-oxo-4,5-dihydrothieno[3,2-b]pyridine-7-carboxylic acid], for which the IC50 is 2250 to 10000 nM against hEXO1, Isoform1; less than 200 nM on hFEN1; 2250 to 10000 nM on hXPG.

Regarding `O=C(O)c1c(O)c(=O)n(Cc2cnn(Cc3ccc4nonc4c3)c2)c2ccsc12` [Example 141, 4-{[1-(benzo[c][1,2,5]oxadiazol-5-ylmethyl)-1H-pyrazol-4-yl]methyl}-6-hydroxy-5-oxo-4,5-dihydrothieno[3,2-b]pyridine-7-carboxylic acid], the IC50 at hEXO1, Isoform1 is 750 to 2250 nM; on hFEN1, less than 200 nM; against hXPG it was 2250 to 10000 nM.

In the case of `Cn1cc(Cn2cc(Cn3c(=O)c(O)c(C(=O)O)c4sccc43)cn2)cn1` [Example 143, 6-hydroxy-4-({1-[(1-methyl-1H-pyrazol-4-yl)methyl]-1H-pyrazol-4-yl}methyl)-5-oxo-4,5-dihydrothieno[3,2-b]pyridine-7-carboxylic acid], the IC50 on hEXO1, Isoform1 is 2250 to 10000 nM; against hFEN1, less than 200 nM; at hXPG it was 2250 to 10000 nM.

`O=C(O)c1c(O)c(=O)n(Cc2cnn(Cc3cnc4ccccn34)c2)c2ccsc12` [Example 144, 6-hydroxy-4-{[1-(imidazo[1,2-a]pyridin-3-ylmethyl)-1H-pyrazol-4-yl]methyl}-5-oxo-4,5-dihydrothieno[3,2-b]pyridine-7-carboxylic acid]: the half-inhibitory concentration (IC50) on hEXO1, Isoform1 was 2250 to 10000 nM; at hFEN1, less than 200 nM; at hXPG, more than 10000 nM.

`N#Cc1ccc(Cn2cc(Cn3c(=O)c(O)c(C(=O)O)c4sccc43)cn2)c(C(F)(F)F)c1` [Example 146, 4-({1-[4-cyano-2-(trifluoromethyl)benzyl]-1H-pyrazol-4-yl}methyl)-6-hydroxy-5-oxo-4,5-dihydrothieno[3,2-b]pyridine-7-carboxylic acid]: the IC50 against hEXO1, Isoform1 was 2250 to 10000 nM; on hFEN1 it was less than 200 nM; at hXPG it was 750 to 2250 nM.

With `O=C(O)c1c(O)c(=O)n(Cc2cn(-c3ccc4c(c3)OCO4)nn2)c2ccsc12` [Example 148, 4-{[1-(benzo[d][1,3]dioxol-5-yl)-1H-1,2,3-triazol-4-yl]methyl}-6-hydroxy-5-oxo-4,5-dihydrothieno[3,2-b]pyridine-7-carboxylic acid], the IC50 against hEXO1, Isoform1 was 250 to 750 nM; on hFEN1, less than 200 nM; at hXPG, 250 to 750 nM.

In the case of `O=C(O)c1c(O)c(=O)n(Cc2cn(-c3ccc4nc[nH]c4c3)nn2)c2ccsc12` [Example 149, 4-{[1-(1H-benzo[d]imidazol-6-yl)-1H-1,2,3-triazol-4-yl]methyl}-6-hydroxy-5-oxo-4,5-dihydrothieno[3,2-b]pyridine-7-carboxylic acid], the IC50 is 2250 to 10000 nM at hEXO1, Isoform1; less than 200 nM on hFEN1; 750 to 2250 nM at hXPG.

With `O=C(O)c1c(O)c(=O)n(Cc2cnn(CC(=O)N3CC[C@H](O)C3)c2)c2ccsc12` [Example 154, (S)-6-hydroxy-4-({1-[2-(3-hydroxypyrrolidin-1-yl)-2-oxoethyl]-1H-pyrazol-4-yl}methyl)-5-oxo-4,5-dihydrothieno[3,2-b]pyridine-7-carboxylic acid], the IC50 is more than 10000 nM against hEXO1, Isoform1; 250 to 750 nM on hFEN1; more than 10000 nM against hXPG.

As for `CN(C(=O)Cn1cc(Cn2c(=O)c(O)c(C(=O)O)c3sccc32)cn1)c1ccccc1` [Example 155], the IC50 against hEXO1, Isoform1 was 2250 to 10000 nM; against hFEN1 it was less than 200 nM; on hXPG, 2250 to 10000 nM.

Consider `O=C(O)c1c(O)c(=O)n(Cc2cnn(CC(=O)N3CCOCC3)c2)c2ccsc12` [Example 156], for which the IC50 against hEXO1, Isoform1 was 2250 to 10000 nM; on hFEN1 it was less than 200 nM; at hXPG it was 2250 to 10000 nM.
